Source: patent US6559148B1, “Use of P2Y purinoreceptor antagonist for the treatment of ischemia reperfusion” (Consiglio Nazionale delle Ricerche, priority 1998, dated 2003)
“Also recorded” adds a separate entry of the source.

Tested on: Wistar albino adult male rats
Assay: Transient global cerebral ischemia by 4-vessel occlusion (4-VO, Pulsinelli and Brierley method) for 30 minutes
Assay type: in vivo, rat
Settings: 30 minutes global ischemia
Experimental: By way of non-limiting example of the present invention, some experimental examples are given herein that show the effectiveness of the compounds modulating P2 purinoceptors, and in particular Basilen Blue, in the reduction of mortality induced by global ischemia. In particular, for such analysis Wistar albino adult male rats weighting 220-250 g have been utilized. Basilen Blue was diluted in saline solution. After a 12 hour fast, transient cerebral ischemia was induced in the rats by the Pulsinelli and Brierley method (Stroke, 10:267-272, 1979). The animals were anesthetized with 2% halotane in a mixture of 30% O2 and 70% N2O. Both vertebral arteries were electrically cauterized and thin claps from Teflon were loosely and reversibly placed around the common carotid arteries. The animals were allowed to recover from anesthesia and kept one per cage, under standard conditions of humidity, temperature and light. The following day, the rats were submitted to a mild anesthesia always with halothane and the claps previously placed around the common carotid arteries were tightened to produce the occlusion of 4 vessels (4-VO) for 30 minutes (in 24 animals). The absence of locomotion activity, the loss of corneal and righting reflexes and the presence of paralytic mydriasis, which took place after 1-2 minutes from the carotid occlusion, were the criteria according to which the animals were considered ischemic and included in the study. The rectal temperature was monitored during the following recovery period and kept constant at a temperature between 36.5 and 37° C. until the rats recovered the locomotion activity and the thermal homeostasis. […]
Wistar albino male rats, having a mean weight of 220-250 g, treated with saline solution (controls) or Basilen Blue were submitted for 30 minutes to global cerebral ischemia, the whole as described previously. The mortality was then monitored for two days following the carotid occlusion in a total of 24 animals (11 controls and 13 treated with Basilen Blue). […]

Basilen Blue E-3G (Reactive Blue 2)
neuronal damage to the hippocampus (neurons lost in CA1-CA2 sectors) (2 x 4,5 mg/kg i.p., vs saline controls): less severe
mortality index compared to control group (2 x 4,5 mg/kg i.p., vs saline controls, p>0,05 as printed): significantly lower; also recorded: reduces the mortality
animals died (mortality) within two days from the carotid occlusion (Basilen Blue 4,5 mg/kg i.p. 15 minutes before and 3 hours after carotid occlusion, control group 5 out of 11 died): 3 out of the 13
